Laboratory results: patent publication US9580428B2, “Compositions and methods for inhibiting viral polymerase” (priority 2012, dated 2017)
Several values for one entry are separate records, joined by “and”; a condition that tells them apart may be missing. Equal values may be shown once. Where a name gives a salt, the structure may show the parent alone. Read-outs that look alike come from different tables or passages of the source. Marks after values point to notes of the source that are not given here.

Experiments:
A/Vic/3/75 (H3N2) = assay: microbe, parasite or virus in culture; format: cell-based; details: Influenza A virus
[1] = system: H3N2 virus (A/Victoria/3/75); set-up: species or system BALB/c mice; details: mouse, in vivo
[2] = system: H3N2 virus (A/Victoria/3/75); set-up: species or system BALB/c mice; details: mouse, in vivo; remark: listed apart in the source
[3] = system: Yellow fever virus (Jimenez strain); format: in vivo, Syrian golden hamsters; details: 100 mg/kg
[4] = system: Adenovirus type 165089/Chicago (A-549 cells); details: human
[5] = system: Adenovirus type 165089/Chicago (A-549 cells); details: human; remark: listed apart in the source
[6] = system: Influenza A H1N1 CA/04/2009 (Pandemic HIN1)
[7] = system: Influenza A H1N1 CA/04/2009 (Pandemic HIN1); remark: listed apart in the source
[8] = system: Rhinovirus 2 HGP (HeLa Ohio-1 cells); details: human
[9] = system: SARS-CoV Urbani (Vero 76 cells); details: African green monkey
West Nile (Vero Cells) = details: African green monkey
[10] = rat, in vivo, po; for AUC(0-inf) / Cmax / Tmax: male, Sprague-Dawley
in vitro [11] = details: African green monkey
in vitro [12] = details: African green monkey; remark: listed apart in the source
[13] = system: Punta Toro A2 (Vero 76 cells); assay: microbe, parasite or virus in culture
[14] = system: Punta Toro A2 (Vero 76 cells); assay: microbe, parasite or virus in culture; remark: listed apart in the source
[15] = system: Respiratory Syncytial A2 (MA-104 cells); assay: microbe, parasite or virus in culture; details: human respiratory syncytial virus, MA104
[16] = system: Respiratory Syncytial A2 (MA-104 cells); assay: microbe, parasite or virus in culture; details: human respiratory syncytial virus, MA104; remark: listed apart in the source
[17] = system: Rhinovirus 2 HGP (HeLa Ohio-1 cells); assay: microbe, parasite or virus in culture; details: Enterovirus, HeLa Ohio1
[18] = system: Rhinovirus 2 HGP (HeLa Ohio-1 cells); assay: microbe, parasite or virus in culture; details: Enterovirus, HeLa Ohio1; remark: listed apart in the source
[19] = system: Yellow Fever 17D (Vero 76 cells); assay: microbe, parasite or virus in culture
[20] = system: Yellow Fever 17D (Vero 76 cells); assay: microbe, parasite or virus in culture; remark: listed apart in the source

SMILES: Cl.Cl.Nc1ncnc2c([C@@H]3N[C@H](CO)[C@@H](O)[C@H]3O)c[nH]c12 [compound 12i, (2S,3S,4R,5R)-2-(4-amino-5H-pyrrolo[3,2-d]pyrimidin-7-yl)-5-(hydroxymethyl)pyrrolidine-3,4-diol dihydrochloride]
- EC50 (A/Vic/3/75 (H3N2)): 4 µg/mL
- Mean day to death (Mean ± SEM) [1]: >16 days
- Survival/Total [2]: 10/10*
- Mean day to death (Mean ± SEM) ([2]; po): >16 days
- Mean weight change (grams ± SEM) Day 9 ([2]; po): 0.01 + 0.27** grams
- Survival/Total ([2]; po): 10/10*
- Survival rate ([3]; 21 days): 100%
- weight ([3]; hamster, in vivo, ip): weight gain over placebo and ribavirin
- Survival rate ([3]; hamster, in vivo, ip, dihydrochloride): 100% and 80%
- IC50 (50% cytotoxic dose) [4]: >0.1 µg/mL
- IC50 (50% cytotoxic dose) [5]: >0.1 µg/mL
- IC50 (50% cytotoxic dose) [6]: 0.21 µg/mL
- IC50 (50% cytotoxic dose) [7]: 0.21 µg/mL
- EC50 (Influenza B Florida): 1.8 µg/mL
- IC50 (50% cytotoxic dose) [8]: >0.1 µg/mL
- IC50 (50% cytotoxic dose) [9]: >0.1 µg/mL
- IC50 (50% cytotoxic dose) (West Nile (Vero Cells)): >0.1 µg/mL
- AUC(0-inf) ([10]; 10 mg/kg): 219 ng·h
- Cmax ([10]; 10 mg/kg): 123 ng/mL
- Tmax ([10]; 10 mg/kg): 30 min
- IC50 (in vitro [11]): > 100 µg/mL
- IC50 (in vitro [12]): > 100 µg/mL
- EC50 [13]: 310 µg/mL
- EC50 [14]: > 250 µg/mL
- EC50 [15]: > 100 µg/mL
- EC50 [16]: > 100 µg/mL
- EC50 [17]: 57 µg/mL
- EC50 [18]: 56 µg/mL
- EC50 [19]: 8.3 µg/mL
- EC50 [20]: 8.3 µg/mL

SMILES: CC(C)[C@H](N)C(=O)OC[C@H]1N[C@@H](c2c[nH]c3c(N)ncnc23)[C@H](O)[C@@H]1O [compound 30f, (S)-((2R,3R,4S,5S)-5-(4-amino-5H-pyrrolo[3,2-d]pyrimidin-7-yl)-3,4-dihydroxypyrrolidin-2-yl)methyl 2-amino-3-methylbutanoate Hydrochloride]
- AUC(0-inf) ([10]; 10 mg/kg): 1076 ng·h
- Cmax ([10]; 10 mg/kg): 527 ng/mL
- Tmax ([10]; 10 mg/kg): 30 min
- hydrolysis by plasma esterases to compound 12i [10]: rapidly hydrolyze
- bioavailability relative to compound 12i ([10]; 10 mg/kg): approximately four-fold
